Where a name gives a salt, the structure may show the parent alone. Some results are limits rather than exact numbers.

For series [1] the following is noted: background statement; cited from earlier work.
The next series relates to RAW264.7. The series can be described thus: Cytotoxicity test (MTT assay) of solvent components PEG, DMSO and HCl. Particulars: RAW264.7, MTT assay, FIG. 1. Type of series: cell-based. In general terms: Tetrazolium assays rely on reduction of a dye to a coloured formazan, in cell work by metabolically active cells.

Procedure for RAW264.7: RAW264.7 (5×10^5 cells/well in 6 well plate) was used as a cell line, and 1XDMEM (supplemented with 7% FBS and 1% antibiotics) medium (Thermo fisher scientific, 11995-065) was used.
Raw264.7 cells, which may be animal model cells, were seeded into 6 well plates containing 2 mL of DMEM medium to have an initial cell number of 5×10^5 cells/well, and then cultured in a CO2 incubator at 37° C. for 1 day under CO2 conditions. After 1 day of culture, solvent composition samples were added and cultured for an additional 2 days under the same conditions, respectively. After that, MTT assay was performed to confirm cytotoxicity.
In this case, the MTT assay method using an MTT assay kit (EZ-CYTOX-company, Dogenbio-model number: EZ-500) first prepared 5×10^5/well (total vol. 2 ml) in a 6-well plate for seeding, and then cultured for 24 h under 37° C., 5% CO2 conditions. A blank (only media) without cells was also prepared at the same time. An experimental material was treated according to conditions, and then cultured and reacted for 24 h under 37° C./5% CO2 conditions. Additionally, 200 μL Ez-cytox ( 1/10) was added to each of the wells, and reacted for 1 h. The wells were shaken gently before measuring absorbance, 200 μL thereof was then transferred to a 96-well plate, the absorbance was measured at a wavelength of 450 nm, and a viability rate was calculated according to the following equation (1).

Turning to “3-[(3, 5-dimethyl-1H-pyrazole-4-yl)methyl]-3-devinylpyropheophorbide-a methyl ester [MPP100]”, the water solubility entry in series [1] was “extremely low water solubility”.

Turning to `C[S+](C)[O-]` [DMSO, dimethylsulfoxide], the “concentration at which no toxicity was observed” value with RAW264.7 is given as not above 2 vol %. Turning to `Cl` [HCl, hydrochloric acid], in the series with RAW264.7, the “concentration at which no toxicity was observed” value is not above 10 mN.

With polyethylene glycol [PEG], the “concentration at which no toxicity was observed” value in the series on RAW264.7 is reported as not above 3 vol %.

Source of the values: patent US20250360214A1, “NON-TOXIC PHOTOSENSITIZER COMPOSITION AND TWO-COMPONENT TYPE PHOTOSENSITIZER COMPOSITION COMPRISING THE SAME” (priority 2024, published 2025).
